From ChEMBL document CHEMBL3045869, “Efficacy of fungicides with various modes of action in controlling the early stages of an Erysiphe necator-induced epidemic” (2010)
Calls of active or inactive are those of the source. The rule behind the calls is not given here.

Tests used:
Erysiphe necator [1] = test: Antifungal activity against Erysiphe necator biotype B assessed as disease severity at 0.625 g a.i./l applied 48 hr post-inoculation measured after 14 days by leaf-disk method relative to untreated-control; format: functional
Erysiphe necator [2] = test: Antifungal activity against Erysiphe necator biotype B assessed as disease severity at 0.625 g a.i./l applied 48 hr post-inoculation measured after 7 days by leaf-disk method relative to untreated-control; format: functional
Erysiphe necator [3] = test: Antifungal activity against Erysiphe necator biotype B assessed as number of spores at 0.625 g a.i./l applied 48 hr post-inoculation measured after 14 days by leaf-disk method (reference value: 43.5 x 10^3 cm'-2); format: functional
Erysiphe necator [4] = test: Antifungal activity against Erysiphe necator biotype B assessed as disease severity at 0.625 g a.i./l applied 4 days post-inoculation measured immediately during cycle 1 by leaf-disk method relative to untreated-control; format: functional
Erysiphe necator [5] = test: Antifungal activity against Erysiphe necator biotype B assessed as number of spores at 0.625 g a.i./l applied 4 days post-inoculation measured after 14 days during cycle 2 by leaf-disk method (reference value: 44.4 x 10^3 cm'-2); format: functional
Erysiphe necator [6] = test: Antifungal activity against Erysiphe necator biotype B assessed as AUDPC at 0.625 g a.i./l applied 4 days post-inoculation measured after 14 days during cycle 2 by leaf-disk method (reference value: 844); format: functional
Erysiphe necator [7] = test: Antifungal activity against Erysiphe necator biotype B assessed as number of spores at 0.625 g a.i./l applied 4 days post-inoculation measured after 14 days during cycle 1 by leaf-disk method (reference value: 35.9 x 10^3 cm'-2); format: functional
Erysiphe necator [8] = test: Antifungal activity against Erysiphe necator biotype B assessed as AUDPC at 0.625 g a.i./l applied 4 days post-inoculation measured after 14 days during cycle 1 by leaf-disk method (reference value: 695.6); format: functional
Erysiphe necator [9] = test: Antifungal activity against Erysiphe necator biotype B assessed as number of spores at 0.625 g a.i./l applied 13 days post-inoculation measured after 14 days during cycle 2 by leaf-disk method (reference value: 47.6 x 10^3 cm'-2); format: functional
Erysiphe necator [10] = test: Antifungal activity against Erysiphe necator biotype B assessed as AUDPC at 0.625 g a.i./l applied 13 days post-inoculation measured after 14 days during cycle 2 by leaf-disk method (reference value: 654); format: functional
Erysiphe necator [11] = test: Antifungal activity against Erysiphe necator biotype B assessed as disease severity at 0.625 g a.i./l applied 4 days post-inoculation measured after 14 days during cycle 1 by leaf-disk method relative to untreated-control; format: functional
Erysiphe necator [12] = test: Antifungal activity against Erysiphe necator biotype B assessed as AUDPC at 0.625 g a.i./l applied 48 hr post-inoculation measured after 14 days by leaf-disk method (reference value: 394); format: functional
Erysiphe necator [13] = test: Antifungal activity against Erysiphe necator biotype B assessed as reduction in disease severity at 0.5 g a.i./l applied 48 hr post-inoculation measured after 14 days by leaf-disk method relative to untreated-control; format: functional, organism-based
Erysiphe necator [14] = test: Antifungal activity against Erysiphe necator biotype B assessed as AUDPC at 0.5 g a.i./l applied 48 hr post-inoculation measured after 14 days by leaf-disk method (reference value: 394); format: functional
Erysiphe necator [15] = test: Antifungal activity against Erysiphe necator biotype B assessed as number of spores at 0.5 g a.i./l applied 48 hr post-inoculation measured after 14 days by leaf-disk method (reference value: 43.5 x 10^3 cm'-2); format: functional
Erysiphe necator [16] = test: Antifungal activity against Erysiphe necator biotype B assessed as reduction in mycelial growth at 0.5 g a.i./l applied 4 days post-inoculation measured after 11 days during cycle 2 by leaf-disk method relative to untreated-control; format: functional, organism-based
Erysiphe necator [17] = test: Antifungal activity against Erysiphe necator biotype B assessed as reduction in sporulation at 0.5 g a.i./l applied 4 days post-inoculation measured after 11 days during cycle 2 by leaf-disk method relative to untreated-control; format: functional, organism-based
Erysiphe necator [18] = test: Antifungal activity against Erysiphe necator biotype B assessed as disease severity at 0.5 g a.i./l applied 4 days post-inoculation measured immediately during cycle 1 by leaf-disk method relative to untreated-control; format: functional
Erysiphe necator [19] = test: Antifungal activity against Erysiphe necator biotype B assessed as number of spores at 0.5 g a.i./l applied 4 days post-inoculation measured after 14 days during cycle 2 by leaf-disk method (reference value: 44.4 x 10^3 cm'-2); format: functional
Erysiphe necator [20] = test: Antifungal activity against Erysiphe necator biotype B assessed as AUDPC at 0.5 g a.i./l applied 4 days post-inoculation measured after 14 days during cycle 2 by leaf-disk method (reference value: 844); format: functional
Erysiphe necator [21] = test: Antifungal activity against Erysiphe necator biotype B assessed as number of spores at 0.5 g a.i./l applied 4 days post-inoculation measured after 14 days during cycle 1 by leaf-disk method (reference value: 35.9 x 10^3 cm'-2); format: functional
Erysiphe necator [22] = test: Antifungal activity against Erysiphe necator biotype B assessed as AUDPC at 0.5 g a.i./l applied 4 days post-inoculation measured after 14 days during cycle 1 by leaf-disk method (reference value: 695.6); format: functional
Erysiphe necator [23] = test: Antifungal activity against Erysiphe necator biotype B assessed as disease severity at 0.5 g a.i./l applied 13 days post-inoculation measured after 6 days during cycle 2 by leaf-disk method relative to untreated-control; format: functional
Erysiphe necator [24] = test: Antifungal activity against Erysiphe necator biotype B assessed as number of spores at 0.5 g a.i./l applied 13 days post-inoculation measured after 14 days during cycle 2 by leaf-disk method (reference value: 47.6 x 10^3 cm'-2); format: functional
Erysiphe necator [25] = test: Antifungal activity against Erysiphe necator biotype B assessed as AUDPC at 0.5 g a.i./l applied 13 days post-inoculation measured after 14 days during cycle 2 by leaf-disk method (reference value: 654); format: functional
Erysiphe necator [26] = test: Antifungal activity against Erysiphe necator biotype B assessed as reduction in AUDPC at 0.5 g a.i./l applied 4 days post-inoculation measured after 11 days during cycle 2 by leaf-disk method relative to untreated-control; format: functional, organism-based
Erysiphe necator [27] = test: Antifungal activity against Erysiphe necator biotype B assessed as reduction in disease severity at 0.5 g a.i./l applied 4 days post-inoculation measured after 11 days during cycle 2 by leaf-disk method relative to untreated-control; format: functional, organism-based
Erysiphe necator [28] = test: Antifungal activity against Erysiphe necator biotype B assessed as disease severity at 0.5 g a.i./l applied 4 days post-inoculation measured after 14 days during cycle 1 by leaf-disk method relative to untreated-control; format: functional
Erysiphe necator [29] = test: Antifungal activity against Erysiphe necator biotype B assessed as disease severity at 0.5 g a.i./l applied 13 days post-inoculation measured after 14 days during cycle 2 by leaf-disk method relative to untreated-control; format: functional
Erysiphe necator [30] = test: Antifungal activity against Erysiphe necator biotype B assessed as AUDPC at 1 g a.i./l applied 4 days post-inoculation measured after 14 days during cycle 1 by leaf-disk method (reference value: 695.6); format: functional
Erysiphe necator [31] = test: Antifungal activity against Erysiphe necator biotype B assessed as inhibition of disease severity at 1 g a.i./l applied 48 hr post-inoculation measured after 14 days by leaf-disk method relative to control; format: functional; parameters: scale not given: the % may be the effect or the level left
Erysiphe necator [32] = test: Antifungal activity against Erysiphe necator biotype B assessed as inhibition of mycelial growth at 1 g a.i./l applied 48 hr post-inoculation measured after 14 days by leaf-disk method; format: functional, organism-based
Erysiphe necator [33] = test: Antifungal activity against Erysiphe necator biotype B assessed as number of spores at 1 g a.i./l applied 13 days post-inoculation measured after 14 days during cycle 2 by leaf-disk method (reference value: 47.6 x 10^3 cm'-2); format: functional
Erysiphe necator [34] = test: Antifungal activity against Erysiphe necator biotype B assessed as AUDPC at 1 g a.i./l applied 13 days post-inoculation measured after 14 days during cycle 2 by leaf-disk method (reference value: 654); format: functional
Erysiphe necator [35] = test: Antifungal activity against Erysiphe necator biotype B assessed as inhibition of mycelial growth at 1 g a.i./l applied 4 days post-inoculation measured on after 14 days during cycle 2 by leaf-disk method relative to untreated-control; format: functional, organism-based
Erysiphe necator [36] = test: Antifungal activity against Erysiphe necator biotype B assessed as disease severity at 1 g a.i./l applied 4 days post-inoculation measured on day 13 during cycle 1 by leaf-disk method relative to untreated-control; format: functional
Erysiphe necator [37] = test: Antifungal activity against Erysiphe necator biotype B assessed as disease severity at 1 g a.i./l applied 4 days post-inoculation measured immediately during cycle 1 by leaf-disk method relative to untreated-control; format: functional
Erysiphe necator [38] = test: Antifungal activity against Erysiphe necator biotype B assessed as disease severity at 1 g a.i./l applied 13 days post-inoculation measured after 14 days during cycle 2 by leaf-disk method relative to untreated-control; format: functional
Erysiphe necator [39] = test: Antifungal activity against Erysiphe necator biotype B assessed as disease severity at 1 g a.i./l applied 13 days post-inoculation measured after 6 days during cycle 2 by leaf-disk method relative to untreated-control; format: functional
Erysiphe necator [40] = test: Antifungal activity against Erysiphe necator biotype B assessed as reduction in mycelial growth at 1 g a.i./l applied 13 days post-inoculation measured after 14 days during cycle 2 by leaf-disk method relative to untreated-control; format: functional, organism-based
Erysiphe necator [41] = test: Antifungal activity against Erysiphe necator biotype B assessed as number of spores at 1 g a.i./l applied 4 days post-inoculation measured after 14 days during cycle 2 by leaf-disk method (reference value: 44.4 x 10^3 cm'-2); format: functional
Erysiphe necator [42] = test: Antifungal activity against Erysiphe necator biotype B assessed as AUDPC at 1 g a.i./l applied 4 days post-inoculation measured after 14 days during cycle 2 by leaf-disk method (reference value: 844); format: functional
Erysiphe necator [43] = test: Antifungal activity against Erysiphe necator biotype B assessed as number of spores at 1 g a.i./l applied 4 days post-inoculation measured after 14 days during cycle 1 by leaf-disk method (reference value: 35.9 x 10^3 cm'-2); format: functional
Erysiphe necator [44] = test: Antifungal activity against Erysiphe necator biotype B assessed as AUDPC at 1 g a.i./l applied 48 hr post-inoculation measured after 14 days by leaf-disk method (reference value: 394); format: functional
Erysiphe necator [45] = test: Antifungal activity against Erysiphe necator biotype B assessed as number of spores at 1 g a.i./l applied 48 hr post-inoculation measured after 14 days by leaf-disk method (reference value: 43.5 x 10^3 cm'-2); format: functional

CO/N=C(\C(=O)OC)c1ccccc1CO/N=C(\C)c1cccc(C(F)(F)F)c1
Activity (Erysiphe necator [1]): 31.8% | Activity (Erysiphe necator [2]): 3% | Activity (Erysiphe necator [3]): 2.1 ×10³ /cm2 | Activity (Erysiphe necator [4]): 24% | Activity (Erysiphe necator [5]): 0.06 ×10³ /cm2 | AUDPC (Erysiphe necator [6]): 0 | Activity (Erysiphe necator [7]): 0.2 ×10³ /cm2 | AUDPC (Erysiphe necator [8]): 459 | Activity (Erysiphe necator [9]): 1 ×10³ /cm2 | AUDPC (Erysiphe necator [10]): 6 | Activity (Erysiphe necator [11]): 60% | AUDPC (Erysiphe necator [12]): 86

Fc1ccc(Oc2ccnc3cc(Cl)cc(Cl)c23)cc1 [QUINOXYFEN]
Activity (Erysiphe necator [13]): Active | AUDPC (Erysiphe necator [14]): 354 | Activity (Erysiphe necator [15]): 27.3 ×10³ /cm2 | Activity (Erysiphe necator [16]): inactive | Activity (Erysiphe necator [17]): inactive | Activity (Erysiphe necator [18]): 24% | Activity (Erysiphe necator [19]): 36.9 ×10³ /cm2 | AUDPC (Erysiphe necator [20]): 6373 | Activity (Erysiphe necator [21]): 10.7 ×10³ /cm2 | AUDPC (Erysiphe necator [22]): 442 | Activity (Erysiphe necator [23]): 5% | Activity (Erysiphe necator [24]): 23.2 ×10³ /cm2 | AUDPC (Erysiphe necator [25]): 361 | Activity (Erysiphe necator [26]): Active | Activity (Erysiphe necator [27]): inactive | Activity (Erysiphe necator [28]): 60% | Activity (Erysiphe necator [29]): 89%

CC(C)(C)C(O)(CCc1ccc(Cl)cc1)Cn1cncn1 (stereo not given) [TEBUCONAZOLE]
AUDPC (Erysiphe necator [30]): 56.6 | Activity (Erysiphe necator [31]): 0% | inhibition (Erysiphe necator [32]): Active | Activity (Erysiphe necator [33]): 30.4 ×10³ /cm2 | AUDPC (Erysiphe necator [34]): 612 | inhibition (Erysiphe necator [35]): Active | Activity (Erysiphe necator [36]): 0% | Activity (Erysiphe necator [37]): 25% | Activity (Erysiphe necator [38]): 95% | Activity (Erysiphe necator [39]): 50% | Activity (Erysiphe necator [40]): inactive | Activity (Erysiphe necator [41]): 0.02 ×10³ /cm2 | AUDPC (Erysiphe necator [42]): 0 | Activity (Erysiphe necator [43]): 0.2 ×10³ /cm2 | AUDPC (Erysiphe necator [44]): 0 | Activity (Erysiphe necator [45]): 0.8 ×10³ /cm2
